Source: patent US20040096356A1, “Assay device for determining analytes in a liquid dairy product” (priority 1997, published 2004)

Assays:
receptor BlaR-CTD [1] = biological target: T1, receptor BlaR-CTD (Bacillus licheniformis, UniProt P12287); test: Five minutes test: strip test for β-lactam antibiotics in milk using BlaR-CTD; type: binding; settings: in 5 minutes; positive when first band is less intense than second band
T1 construct: the receptor BlaR-CTD is the carboxy-terminal region of BlaR
From the text: (§1) According to a preferred embodiment of the invention an identifier is used which comprises a receptor sensitive to antibiotics having a β-lactam ring, which receptor is obtained from Bacillus licheniformis, such as the receptor BlaR or the receptor BlaR-CTD. The isolation and the peptide sequence of the protein BlaR are described in Y. Zhu et al., J. Bacteriol., 1137-1141 (1990); the receptor BlaR-CTD is the carboxy-terminal region of BlaR, whose isolation and peptide sequence are described in B. Joris et al., FEMS Microbiology Letters, 107-114 (1990).
(§2) This example illustrates the detection in milk of antibiotics having a β-lactam ring which are monitored by the health authorities. The test described in this example uses the receptor BlaR-CTD coupled with gold beads, which serve as labelling agents, and uses a support which is in the form of an assay device comprising a solid support on which membranes are fixed.
(§3) 3.79 ml of a solution of recognition agent BlaR-CTD having a concentration of 6.6 mg/ml are taken up in a sodium phosphate buffer, 20 mM pH 7. To this solution of BlaR-CTD are then added 41.71 ml of bicarbonate buffer (0.1 M sodium bicarbonate, pH 9) and 2 ml of a solution of N-hydroxysuccinimide 6-(biotinamido)caproic ester containing 2.23 mg/ml likewise of bicarbonate buffer. This solution is stirred gently on a LABINCO stirrer for tubes on a rotary axis (available from VEL, Belgium) at a rate of 2 revolutions/minute for 2 hours at ambient temperature and away from light. 2.5 ml of a solution of Tris buffer, 1 M pH 8 are incubated with the reaction mixture under the same conditions for 30 minutes. The solution thus obtained is dialysed against HNM buffer (Hepes 100 mM, pH 8, NaCl 100 mM, MgCl2 50 mM) for 24 hours. In this way a biotinylated BlaR-CTD solution is obtained which is diluted in HNM-BSA buffer (Hepes 500 mM, pH 8, NaCl 500 mM, MgCl2 250 mM, BSA 10 mg/ml) to a concentration of 250 μg of biotinylated BlaR-CTD per ml of buffer. This solution is stored at −20° C.
(§4) The biotinylated BlaR-CTD solution prepared in Example 3.1.1 is diluted 114.7 times with the HNM-BSA buffer (Hepes 500 mM, pH 8, NaCl 500 mM, MgCl2 250 mM, BSA 10 mg/ml). At room temperature, 22.5 parts by volume of this dilute biotinylated BlaR-CTD solution, 7.5 parts by volume of HNM-BSA buffer, 9.27 parts by volume of the gold particle suspension used to label the biotinylated BlaR-CTD and 6 parts by volume of reference gold particle suspension are mixed (see Example 3.1.4 below).
(§5) The first capture substance makes it possible to fix the BlaR-CTD coupled with the gold beads present in excess relative to the quantity of antibiotic present in the sample.
(§6) Assay devices containing membranes (2), (3) and (4) are used, assembled in accordance with the procedure described in Example 1.1. The membrane (3) of these devices carries on the proximal side the capture substance described in Example 32.1. and on the distal side the capture substance described in Example 3.2.2. The capture substances were deposited in accordance with the procedure described in Example 1.2.
Six samples of fresh milk are prepared, containing 0; 2; 4; 6; 8 and 10 ppb, repsectively, of cloxacillin. Each of these solutions is then analysed as follows.
(§7) An aliquot is taken of 200 μl of milk sample and 45.27 μl of solution prepared in Example 3.1.3, and is placed in a glass flask. This mixture is incubated at 47° C. for 3 minutes. An assay device is taken and is placed vertically in the glass flask such that the first end of the assay device is in contact with the mixture in such a way that the second end rests on the wall of the glass flask. The mixture is allowed to migrate over the assay device while the assembly is incubated at 47° C. for 2 minutes.
(§8) An intensity value ranging from 0 to 10 is awarded to the bands detected, the value 10 being given to the most intense band and the value 0 being given to the least intense band. On this scale, a value of 6 is awarded to the reference band. […]

receptor BlaR-CTD [2] = biological target: T1, receptor BlaR-CTD; test: 9-minute test: strip test for β-lactam antibiotics in milk using BlaR-CTD; type: binding; settings: in 9 minutes; positive when first band is less intense than second band
From the text: as §1, §2, §3, §4, §5, §6
Six samples of fresh milk are prepared, containing 0; 4; 6; 8; 10 and 12 ppb, respectively, of cephapirin. Each of these solutions is then analysed as follows.
as §7, with “for 7” for “for 3”
as §8

T1 sequence (P12287 340-601): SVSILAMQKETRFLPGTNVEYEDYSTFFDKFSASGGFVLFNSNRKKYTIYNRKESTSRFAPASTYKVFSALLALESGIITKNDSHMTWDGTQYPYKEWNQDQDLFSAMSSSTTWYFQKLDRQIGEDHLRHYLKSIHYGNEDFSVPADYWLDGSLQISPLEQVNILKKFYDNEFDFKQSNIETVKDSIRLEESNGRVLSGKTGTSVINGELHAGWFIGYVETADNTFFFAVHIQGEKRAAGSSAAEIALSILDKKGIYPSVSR

How did the “lowest concentration detected in a milk sample” value (receptor BlaR-CTD [1]) turn out when `CC1(C)S[C@@H]2[C@H](NC(=O)Cc3ccccc3)C(=O)N2[C@H]1C(=O)O` [Penicillin G, penicillin G] was run?
The value was 3 ppb.

What about the “lowest concentration detected in a milk sample” value (receptor BlaR-CTD [2]) of the same molecule?
The value was 3 ppb.
